Test system: L428 cells
Assay: Xenograft in NSG mice, CD30 immunofluorescence of cytospin slides
Assay type: in vivo
Set-up: key to Spleen, red pulp activation, diffuse / Liver, Tumour cell infiltration: “0”=without any staining; “1”=minimal, <1% staining; “2”=mild, 1% staining; “3”=moderate, <10% staining; “4”=marked, 10-40% staining; “5”=severe, >40% of cells staining
Conditions: for Bone Marrow: Tumour infiltration: Marked / Bone Marrow: Tumour infiltration: Mild / Bone Marrow: Tumour infiltration: Minimal / Bone Marrow: Tumour infiltration: Moderate / Bone Marrow: Tumour infiltration: No / Bone Marrow: Tumour infiltration: Overall / Bone Marrow: Tumour infiltration: Severe / Injection site: Tumour infiltration: Marked / Injection site: Tumour infiltration: Mild / Injection site: Tumour infiltration: Minimal / Injection site: Tumour infiltration: Moderate / Injection site: Tumour infiltration: No / Injection site: Tumour infiltration: Overall / Injection site: Tumour infiltration: Severe / Liver: Tumour infiltration: Marked / Liver: Tumour infiltration: Mild / Liver: Tumour infiltration: Minimal / Liver: Tumour infiltration: Moderate / Liver: Tumour infiltration: No / Liver: Tumour infiltration: Overall / Liver: Tumour infiltration: Severe / Spleen: Tumour infiltration: Marked / Spleen: Tumour infiltration: Mild / Spleen: Tumour infiltration: Minimal / Spleen: Tumour infiltration: Moderate / Spleen: Tumour infiltration: No / Spleen: Tumour infiltration: Overall / Spleen: Tumour infiltration: Severe / Tumour presence: Overall: % of mice
Description: Immunodeficient NOD-SCID-gammac−/− (NSG) mice aged 5 to 6 weeks were purchased from Charles River (NOD.Cg-Prkdcscid Il2rgtm1Wjl/SzJ). The mice arrived two weeks before the beginning of the experiments and were housed in micro-isolator cages during the entire course of the study. Immediately prior to the injection of Hodgkin lymphoma cells, mice were exposed to 3 Gy gamma irradiation using an IBL637 ^137Cs irradiator at a dose rate of 0.61 Gy/min. From 10^3 to 10^6 cells, either from the original cell lines or following amplification, were injected intravenously via the retro-orbital sinus. The mice were sacrificed by cervical dislocation and different organs were analysed and tumoural infiltration examined using multiple techniques.
Two independent experiments were performed to investigate the dose-effect of EDO-S101 in NSG mice eight weeks after xenografting with L428 cells as in Example 8. The aim of the protocol shown in FIG. […]
The mice were sacrificed by cervical dislocation. The sampled organs consisted of the eyes (site of injection), liver, spleen and bone marrow. Following dissection of different organs, including tumours, the first portion was used for flow cytometry (FACS) and cytogenetic analyses while the second was fixed in 4% paraformaldehyde (PFA) for immunohistochemistry (IHC). To obtain a single cell suspension, the tissues were first cut into pieces. Thereafter, the cells were physically disaggregated using an 80 μm nylon cell strainer and filtered a second time through a 70 μm nylon cell strainer (BD Biosciences, Erembodegem, Belgium).
Cells were cytospun onto poly-L-lysine-coated glass slides at 700 rpm for 4 min, fixed with 10% formalin for 10 min, and treated with 0.25% Triton X-100 solution for 10 min. After blocking with 5% bovine serum albumin (Sigma), the cells were incubated with an anti-CD30 antibody (DAKO A/S, Glostrup, Denmark). Then, cells were treated with Cyanine 3 anti-mouse IgG (Invitrogen, Carlsbad, Calif.). As a negative control, staining was carried out in the absence of primary antibody. The L428-s cell line served as positive control.
Individual microscopic findings following immunofluorescence CD30 staining of cytopsin slides: “0”=without any staining; “1”=minimal, <1% staining; “2”=mild, 1% staining; “3”=moderate, <10% staining; “4”=marked, 10-40% staining; “5”=severe, >40% of cells staining.

## Cn1c(CCCCCCC(=O)NO)nc2cc(N(CCCl)CCCl)ccc21 [EDO-S101]
80 mg/kg
  Bone Marrow: Tumour infiltration: Marked: 0.0%
  Bone Marrow: Tumour infiltration: Mild: 0.0%
  Bone Marrow: Tumour infiltration: Minimal: 33.3%
  Bone Marrow: Tumour infiltration: Moderate: 0.0%
  Bone Marrow: Tumour infiltration: No: 33.3%
  Bone Marrow: Tumour infiltration: Overall: 33.3%
  Bone Marrow: Tumour infiltration: Severe: 0.0%
  Injection site: Tumour infiltration: Marked: 0.0%
  Injection site: Tumour infiltration: Mild: 33.3%
  Injection site: Tumour infiltration: Minimal: 0.0%
  Injection site: Tumour infiltration: Moderate: 0.0%
  Injection site: Tumour infiltration: No: 0.0%
  Injection site: Tumour infiltration: Overall: 33.3%
  Injection site: Tumour infiltration: Severe: 0.0%
  Liver: Tumour infiltration: Marked: 0.0%
  Liver: Tumour infiltration: Mild: 0.0%
  Liver: Tumour infiltration: Minimal: 0.0%
  Liver: Tumour infiltration: Moderate: 0.0%
  Liver: Tumour infiltration: No: 100.0%
  Liver: Tumour infiltration: Overall: 0.0%
  Liver: Tumour infiltration: Severe: 0.0%
  Spleen: Tumour infiltration: Marked: 0.0%
  Spleen: Tumour infiltration: Mild: 0.0%
  Spleen: Tumour infiltration: Minimal: 0.0%
  Spleen: Tumour infiltration: Moderate: 0.0%
  Spleen: Tumour infiltration: No: 33.3%
  Spleen: Tumour infiltration: Overall: 0.0%
  Spleen: Tumour infiltration: Severe: 0.0%
  Tumour presence: Overall: 66.7%
1 * 60 mg/kg
  Bone Marrow: Tumour infiltration: Marked: 0.0%
  Bone Marrow: Tumour infiltration: Mild: 0.0%
  Bone Marrow: Tumour infiltration: Minimal: 25.0%
  Bone Marrow: Tumour infiltration: Moderate: 0.0%
  Bone Marrow: Tumour infiltration: No: 0.0%
  Bone Marrow: Tumour infiltration: Overall: 25.0%
  Bone Marrow: Tumour infiltration: Severe: 0.0%
  Injection site: Tumour infiltration: Marked: 75.0%
  Injection site: Tumour infiltration: Mild: 0.0%
  Injection site: Tumour infiltration: Minimal: 0.0%
  Injection site: Tumour infiltration: Moderate: 25.0%
  Injection site: Tumour infiltration: No: 0.0%
  Injection site: Tumour infiltration: Overall: 100.0%
  Injection site: Tumour infiltration: Severe: 0.0%
  Liver: Tumour infiltration: Marked: 0.0%
  Liver: Tumour infiltration: Mild: 0.0%
  Liver: Tumour infiltration: Minimal: 50.0%
  Liver: Tumour infiltration: Moderate: 25.0%
  Liver: Tumour infiltration: No: 25.0%
  Liver: Tumour infiltration: Overall: 75.0%
  Liver: Tumour infiltration: Severe: 0.0%
  Spleen: Tumour infiltration: Marked: 0.0%
  Spleen: Tumour infiltration: Mild: 0.0%
  Spleen: Tumour infiltration: Minimal: 0.0%
  Spleen: Tumour infiltration: Moderate: 0.0%
  Spleen: Tumour infiltration: No: 25.0%
  Spleen: Tumour infiltration: Overall: 0.0%
  Spleen: Tumour infiltration: Severe: 0.0%
  Tumour presence: Overall: 100.0%
1 * 60 mg/kg, individual mice
  Bone marrow: 1 (“1”=minimal, <1% staining)
  Spleen, red pulp activation, diffuse: 0
1 * 80 mg/kg, individual mice
  Eye and/or periocular mucosa, periocular tumour cell infiltration, focal/multifocal/diffuse: 2 (“2”=mild, 1% staining)
  Liver, Tumour cell infiltration: 0
  Spleen, red pulp activation, diffuse: 0
2 * 60 mg/kg
  Bone Marrow: Tumour infiltration: Marked: 0.0%
  Bone Marrow: Tumour infiltration: Mild: 0.0%
  Bone Marrow: Tumour infiltration: Minimal: 55.6%
  Bone Marrow: Tumour infiltration: Moderate: 0.0%
  Bone Marrow: Tumour infiltration: No: 22.2%
  Bone Marrow: Tumour infiltration: Overall: 55.6%
  Bone Marrow: Tumour infiltration: Severe: 0.0%
  Injection site: Tumour infiltration: Marked: 0.0%
  Injection site: Tumour infiltration: Mild: 11.1%
  Injection site: Tumour infiltration: Minimal: 0.0%
  Injection site: Tumour infiltration: Moderate: 0.0%
  Injection site: Tumour infiltration: No: 0.0%
  Injection site: Tumour infiltration: Overall: 11.1%
  Injection site: Tumour infiltration: Severe: 0.0%
  Liver: Tumour infiltration: Marked: 0.0%
  Liver: Tumour infiltration: Mild: 11.1%
  Liver: Tumour infiltration: Minimal: 44.4%
  Liver: Tumour infiltration: Moderate: 0.0%
  Liver: Tumour infiltration: No: 44.4%
  Liver: Tumour infiltration: Overall: 55.6%
  Liver: Tumour infiltration: Severe: 0.0%
  Spleen: Tumour infiltration: Marked: 0.0%
  Spleen: Tumour infiltration: Mild: 0.0%
  Spleen: Tumour infiltration: Minimal: 44.4%
  Spleen: Tumour infiltration: Moderate: 0.0%
  Spleen: Tumour infiltration: No: 11.1%
  Spleen: Tumour infiltration: Overall: 44.4%
  Spleen: Tumour infiltration: Severe: 0.0%
  Tumour presence: Overall: 66.7%
2 * 60 mg/kg, individual mice
  Eye and/or periocular mucosa, periocular tumour cell infiltration, focal/multifocal/diffuse: 2 (“2”=mild, 1% staining)
Single dose of 80 mg/kg
  tumour cells in organs (liver, spleen, bone marrow): No tumour cells were observed in any organs

Reference: patent US20180098969A1, “HODGKIN LYMPHOMA THERAPY” (Purdue Pharmaceutical Products L.P., priority 2016, published 2018)
